Results: US10543298B2, “Salts of tetracyclines” (Hovione Scientia Limited, priority 2015, dated 2020)
Structures can show the parent of a compound that is named as a salt. Where two headings read alike, the source gives them in different places.

Columns and labels:
[1] = Solubility in buffers at pH 1.0, 1.2, 4.5, 6.8 and 7.5; assay type: physicochemical
Protocol: The buffers at pH 1.0 and 1.2 were prepared with aqueous solutions of potassium chloride 0.2M and hydrochloric acid 0.2 M, the buffers at pH 6.8 and 7.5 were prepared with aqueous solutions of monobasic potassium phosphate 0.2 M and sodium hydroxide 0.2 M and the buffer at pH 4.5 with aqueous solutions of potassium biphthalate 0.2 M and hydrochloric acid 0.2 M, according to pharmacopoeia USP31.
The statement freely soluble means that the volume of solvent (required for dissolution) in ml per gram of solute is of from 1 to 10. The statement soluble means that the volume of solvent (required for dissolution) in ml per gram of solute is of from […]. The statement sparingly soluble means that the volume of solvent (required for dissolution) in ml per gram of solute is of from 30 to 100. The statement slightly soluble means that the volume of solvent (required for dissolution) in ml per gram of solute is of from 100 to 1000. The statement very slightly soluble means that the volume of solvent (required for dissolution) in ml per gram of solute is from 1000 to 10 000.

[2] = Color classification according to the Munsell color system; assay type: physicochemical
From the text: The table below presents the color classification of the doxycycline salts according to the Munsell color system.

[3] = pH of aqueous solutions of the salts; conditions: aqueous solution, concentration approximately 10^-3 M
[4] = background statement on the acidic salt; cited from earlier work
[5] = buffer pH 1.0, KCl 0.2 M / HCl 0.2 M
[6] = buffer pH 1.2, KCl 0.2 M / HCl 0.2 M
[7] = buffer pH 4.5, potassium biphthalate 0.2 M / HCl 0.2 M
[8] = buffer pH 6.8, monobasic potassium phosphate 0.2 M / NaOH 0.2 M
[9] = buffer pH 7.5, monobasic potassium phosphate 0.2 M / NaOH 0.2 M

Row | SMILES | Solubility pH = 1.0 (class) [1, 5] | Solubility pH = 1.0 (volume of solvent required for dissolution per gram of solute) [1, 5] | Solubility pH = 1.2 (class) [1, 6] | Solubility pH = 1.2 (volume of solvent required for dissolution per gram of solute) [1, 6] | Solubility pH = 4.5 (class) [1, 7] | Solubility pH = 4.5 (volume of solvent required for dissolution per gram of solute) [1, 7] | Solubility pH = 6.8 (class) [1, 8] | Solubility pH = 6.8 (volume of solvent required for dissolution per gram of solute) [1, 8] | Solubility pH = 7.5 (class) [1, 9] | Solubility pH = 7.5 (volume of solvent required for dissolution per gram of solute) [1, 9] | Solubility compared with the hydrochloride / hyclate ([1]; pH 1.0, 1.2, 4.5, 6.8 and 7.5 (all pH values tested)) | Solubility compared with doxycycline monohydrate ([1]; pH 1.0 and pH 1.2) | Solubility compared with doxycycline monohydrate ([1]; pH 4.5, pH 6.8 and pH 7.5) | Color Description [2] | Munsell Classification ([2]; Munsell color system) | pH [3] | pH [4]
1 | C[C@H]1c2cccc(O)c2C(O)=C2C(=O)[C@]3(O)C(O)=C(C(N)=O)C(=O)[C@@H](N(C)C)[C@@H]3[C@@H](O)[C@@H]21.O=C(O)C(=O)O [Doxycycline Oxalate] | Slightly (The statement slightly soluble means that the volume of solvent (required for dissolution) in ml per gram of solute is of from 100 to 1000) | 500 ml/g | Very Slightly (The statement very slightly soluble means that the volume of solvent (required for dissolution) in ml per gram of solute is from 1000 to 10 000) | 1900 ml/g | Slightly (The statement slightly soluble means that the volume of solvent (required for dissolution) in ml per gram of solute is of from 100 to 1000) | 500 ml/g | Slightly (The statement slightly soluble means that the volume of solvent (required for dissolution) in ml per gram of solute is of from 100 to 1000) | 125 ml/g | Slightly (The statement slightly soluble means that the volume of solvent (required for dissolution) in ml per gram of solute is of from 100 to 1000) | 143 ml/g | lower than that of the hyclate | lower than that of the monohydrate | similar | Yellowish | 5Y/9/4 NN | 3.2 | –
2 | C[C@H]1c2cccc(O)c2C(=O)C2=C(O)[C@]3(O)C(=O)C(C(N)=O)=C(O)[C@@H](N(C)C)[C@@H]3[C@@H](O)[C@@H]21 [doxycycline hydrochloride] | – | – | – | – | – | – | – | – | – | – | – | – | – | – | – | – | about 3
